Test results taken from the kinase profiling compilation of Christmann-Franck et al. (2016).

What was measured:
Experiment in all cases: KINOMEscan competition binding
ADCK3 (human) = ADCK3 (human) (UniProt Q8NI60); conditions: compound 1.0 µM
CDC42BPA (human) = CDC42BPA (human) (UniProt Q5VT25); conditions: compound 1.0 µM
CDC42BPB (human) = CDC42BPB (human) (UniProt Q9Y5S2); conditions: compound 1.0 µM
CDK15 (human) = CDK15 (human) (UniProt Q96Q40); conditions: compound 1.0 µM
CDK4 CCND1 (human) = CDK4 CCND1 (human) (UniProt P11802+P24385); conditions: compound 1.0 µM
CDK7 (human) = CDK7 (human) (UniProt P50613); conditions: compound 1.0 µM
CDK9 (human) = CDK9 (human) (UniProt P50750); conditions: compound 1.0 µM
CSNK1E (human) = CSNK1E (human) (UniProt P49674); conditions: compound 1.0 µM
CSNK2A1 (human) = CSNK2A1 (human) (UniProt P68400); conditions: compound 1.0 µM
DCLK1 (human) = DCLK1 (human) (UniProt O15075); conditions: compound 1.0 µM
[1] = system: EGFR (human), P00533 [T790M/L858R]; conditions: compound 1.0 µM
EPHA6 (human) = EPHA6 (human) (UniProt Q9UF33); conditions: compound 1.0 µM
EPHB1 (human) = EPHB1 (human) (UniProt P54762); conditions: compound 1.0 µM
HUNK (human) = HUNK (human) (UniProt P57058); conditions: compound 1.0 µM
LRRK2 (human) = LRRK2 (human) (UniProt Q5S007); conditions: compound 1.0 µM
MAP3K13 (human) = MAP3K13 (human) (UniProt O43283); conditions: compound 1.0 µM
MERTK (human) = MERTK (human) (UniProt Q12866); conditions: compound 1.0 µM
MET (human) = MET (human) (UniProt P08581); conditions: compound 1.0 µM
MST1R (human) = MST1R (human) (UniProt Q04912); conditions: compound 1.0 µM
NEK7 (human) = NEK7 (human) (UniProt Q8TDX7); conditions: compound 1.0 µM
NTRK1 (human) = NTRK1 (human) (UniProt P04629); conditions: compound 1.0 µM
PAK1 (human) = PAK1 (human) (UniProt Q13153); conditions: compound 1.0 µM
PAK3 (human) = PAK3 (human) (UniProt O75914); conditions: compound 1.0 µM
PHKG1 (human) = PHKG1 (human) (UniProt Q16816); conditions: compound 1.0 µM
[2] = system: PIK3CA (human), P42336 [E545K]; conditions: compound 1.0 µM
[3] = system: PIK3CA (human), P42336 [I800L]; conditions: compound 1.0 µM
PIM2 (human) = PIM2 (human) (UniProt Q9P1W9); conditions: compound 1.0 µM
PIM3 (human) = PIM3 (human) (UniProt Q86V86); conditions: compound 1.0 µM
PRKD3 (human) = PRKD3 (human) (UniProt O94806); conditions: compound 1.0 µM
PRKX (human) = PRKX (human) (UniProt P51817); conditions: compound 1.0 µM
PTK6 (human) = PTK6 (human) (UniProt Q13882); conditions: compound 1.0 µM
[4] = system: RET (human), P07949 [M918T]; conditions: compound 1.0 µM
RIOK3 (human) = RIOK3 (human) (UniProt O14730); conditions: compound 1.0 µM
RIPK4 (human) = RIPK4 (human) (UniProt P57078); conditions: compound 1.0 µM
ROS1 (human) = ROS1 (human) (UniProt P08922); conditions: compound 1.0 µM
SGK110 (human) = SGK110 (human) (UniProt P0C264); conditions: compound 1.0 µM
SNRK (human) = SNRK (human) (UniProt Q9NRH2); conditions: compound 1.0 µM
SRMS (human) = SRMS (human) (UniProt Q9H3Y6); conditions: compound 1.0 µM
STK17A (human) = STK17A (human) (UniProt Q9UEE5); conditions: for kinase still bound, per cent of control: compound 1.0 µM
STK33 (human) = STK33 (human) (UniProt Q9BYT3); conditions: compound 1.0 µM
TAOK1 (human) = TAOK1 (human) (UniProt Q7L7X3); conditions: compound 1.0 µM
ULK1 (human) = ULK1 (human) (UniProt O75385); conditions: compound 1.0 µM
ULK3 (human) = ULK3 (human) (UniProt Q6PHR2); conditions: compound 1.0 µM

STK17A (human), sequence (Q9UEE5 whole entry, looked up): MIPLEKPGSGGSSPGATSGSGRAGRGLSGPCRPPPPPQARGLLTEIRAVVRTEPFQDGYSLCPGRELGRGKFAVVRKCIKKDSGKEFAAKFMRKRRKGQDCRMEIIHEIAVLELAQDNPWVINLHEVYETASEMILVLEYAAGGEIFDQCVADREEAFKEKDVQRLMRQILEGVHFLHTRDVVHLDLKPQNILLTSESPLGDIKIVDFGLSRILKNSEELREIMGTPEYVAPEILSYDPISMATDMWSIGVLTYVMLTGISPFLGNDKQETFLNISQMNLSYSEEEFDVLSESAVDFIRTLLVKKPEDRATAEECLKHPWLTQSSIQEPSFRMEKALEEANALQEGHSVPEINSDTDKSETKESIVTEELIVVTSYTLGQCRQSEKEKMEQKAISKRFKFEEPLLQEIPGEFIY
CSNK2A1 (human), sequence (P68400 whole entry, looked up): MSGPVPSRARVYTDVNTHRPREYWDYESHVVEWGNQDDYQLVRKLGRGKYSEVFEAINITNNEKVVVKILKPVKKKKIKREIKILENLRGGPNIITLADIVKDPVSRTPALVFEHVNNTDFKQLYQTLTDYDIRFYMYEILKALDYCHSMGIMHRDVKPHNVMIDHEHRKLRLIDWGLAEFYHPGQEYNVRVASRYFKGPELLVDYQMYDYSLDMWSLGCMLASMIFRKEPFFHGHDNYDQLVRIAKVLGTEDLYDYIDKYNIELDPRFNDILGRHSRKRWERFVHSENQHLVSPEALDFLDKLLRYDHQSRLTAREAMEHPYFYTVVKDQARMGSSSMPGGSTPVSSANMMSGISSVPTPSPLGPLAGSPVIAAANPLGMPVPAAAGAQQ
RIPK4 (human), sequence (P57078 whole entry, looked up): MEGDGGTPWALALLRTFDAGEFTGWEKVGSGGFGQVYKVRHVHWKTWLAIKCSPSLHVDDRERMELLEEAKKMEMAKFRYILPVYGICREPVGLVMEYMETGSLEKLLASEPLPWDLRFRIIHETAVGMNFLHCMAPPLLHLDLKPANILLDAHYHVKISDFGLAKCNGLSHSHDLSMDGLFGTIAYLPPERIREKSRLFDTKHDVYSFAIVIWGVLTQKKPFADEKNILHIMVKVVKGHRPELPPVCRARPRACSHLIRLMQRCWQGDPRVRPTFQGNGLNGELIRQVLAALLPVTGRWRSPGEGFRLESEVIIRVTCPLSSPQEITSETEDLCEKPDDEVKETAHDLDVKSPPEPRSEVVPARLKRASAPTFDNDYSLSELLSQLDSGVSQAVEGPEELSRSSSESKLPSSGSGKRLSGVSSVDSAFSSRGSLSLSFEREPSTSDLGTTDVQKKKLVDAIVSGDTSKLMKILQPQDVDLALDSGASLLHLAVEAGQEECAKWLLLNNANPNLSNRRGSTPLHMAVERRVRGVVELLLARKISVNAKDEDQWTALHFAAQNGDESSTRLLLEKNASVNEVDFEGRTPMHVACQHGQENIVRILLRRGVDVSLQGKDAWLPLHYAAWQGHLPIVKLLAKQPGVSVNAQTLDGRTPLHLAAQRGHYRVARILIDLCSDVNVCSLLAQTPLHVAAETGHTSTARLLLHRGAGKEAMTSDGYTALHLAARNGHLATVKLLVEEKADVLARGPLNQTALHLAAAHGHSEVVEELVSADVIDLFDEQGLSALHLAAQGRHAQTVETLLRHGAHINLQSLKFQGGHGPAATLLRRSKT
NEK7 (human), sequence (Q8TDX7 whole entry, looked up): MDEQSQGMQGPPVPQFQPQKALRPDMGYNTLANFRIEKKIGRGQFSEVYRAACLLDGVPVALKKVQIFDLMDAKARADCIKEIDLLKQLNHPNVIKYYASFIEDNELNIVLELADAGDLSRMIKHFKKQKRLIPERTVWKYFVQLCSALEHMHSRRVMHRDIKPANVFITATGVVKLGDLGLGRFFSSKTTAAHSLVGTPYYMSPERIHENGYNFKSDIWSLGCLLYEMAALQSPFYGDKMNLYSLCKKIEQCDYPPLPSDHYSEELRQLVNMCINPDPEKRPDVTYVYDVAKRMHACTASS
CDC42BPB (human), sequence (Q9Y5S2 whole entry, looked up): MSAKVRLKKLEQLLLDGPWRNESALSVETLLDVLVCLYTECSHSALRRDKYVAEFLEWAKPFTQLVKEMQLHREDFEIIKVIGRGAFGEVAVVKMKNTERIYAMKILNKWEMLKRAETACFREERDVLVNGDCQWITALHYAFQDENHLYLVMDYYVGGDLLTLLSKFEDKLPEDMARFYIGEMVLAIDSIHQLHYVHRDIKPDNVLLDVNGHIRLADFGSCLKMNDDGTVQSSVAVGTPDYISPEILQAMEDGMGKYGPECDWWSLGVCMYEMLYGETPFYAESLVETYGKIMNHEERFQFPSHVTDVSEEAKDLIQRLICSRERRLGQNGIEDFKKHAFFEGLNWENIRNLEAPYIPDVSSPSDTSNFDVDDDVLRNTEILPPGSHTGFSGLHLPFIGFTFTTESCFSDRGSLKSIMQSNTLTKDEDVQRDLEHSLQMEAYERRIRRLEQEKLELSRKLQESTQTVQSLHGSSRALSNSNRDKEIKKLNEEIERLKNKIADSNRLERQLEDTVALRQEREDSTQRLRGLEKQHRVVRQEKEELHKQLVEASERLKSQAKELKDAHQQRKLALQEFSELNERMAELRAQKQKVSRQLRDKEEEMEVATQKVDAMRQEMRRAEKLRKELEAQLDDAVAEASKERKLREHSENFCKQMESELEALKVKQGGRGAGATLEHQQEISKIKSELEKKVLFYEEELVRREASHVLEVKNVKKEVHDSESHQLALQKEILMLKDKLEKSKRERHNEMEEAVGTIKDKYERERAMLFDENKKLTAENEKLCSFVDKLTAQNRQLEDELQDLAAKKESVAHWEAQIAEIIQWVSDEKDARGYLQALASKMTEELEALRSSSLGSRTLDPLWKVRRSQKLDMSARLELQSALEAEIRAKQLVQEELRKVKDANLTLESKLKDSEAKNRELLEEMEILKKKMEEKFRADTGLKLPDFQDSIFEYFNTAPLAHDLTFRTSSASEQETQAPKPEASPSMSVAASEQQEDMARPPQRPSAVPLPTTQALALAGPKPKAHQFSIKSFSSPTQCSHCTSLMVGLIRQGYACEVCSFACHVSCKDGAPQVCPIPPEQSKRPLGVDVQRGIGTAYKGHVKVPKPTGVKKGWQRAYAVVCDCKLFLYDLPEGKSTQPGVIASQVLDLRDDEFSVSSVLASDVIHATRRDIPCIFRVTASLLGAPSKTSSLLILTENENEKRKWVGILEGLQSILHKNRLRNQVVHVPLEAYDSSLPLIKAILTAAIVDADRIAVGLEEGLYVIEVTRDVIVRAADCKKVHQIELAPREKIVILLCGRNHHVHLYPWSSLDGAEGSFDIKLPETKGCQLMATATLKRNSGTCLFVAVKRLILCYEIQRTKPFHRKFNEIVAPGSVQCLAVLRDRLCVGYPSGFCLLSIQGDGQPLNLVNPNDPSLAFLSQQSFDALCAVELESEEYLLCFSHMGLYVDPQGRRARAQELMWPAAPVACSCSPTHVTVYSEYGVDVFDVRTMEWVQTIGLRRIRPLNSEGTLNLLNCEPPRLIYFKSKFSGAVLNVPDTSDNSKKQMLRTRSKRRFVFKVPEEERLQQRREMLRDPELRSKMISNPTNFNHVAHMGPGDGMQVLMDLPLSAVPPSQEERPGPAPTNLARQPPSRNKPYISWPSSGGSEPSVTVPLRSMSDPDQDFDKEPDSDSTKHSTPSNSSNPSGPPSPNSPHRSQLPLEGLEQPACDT
EPHB1 (human), sequence (P54762 whole entry, looked up): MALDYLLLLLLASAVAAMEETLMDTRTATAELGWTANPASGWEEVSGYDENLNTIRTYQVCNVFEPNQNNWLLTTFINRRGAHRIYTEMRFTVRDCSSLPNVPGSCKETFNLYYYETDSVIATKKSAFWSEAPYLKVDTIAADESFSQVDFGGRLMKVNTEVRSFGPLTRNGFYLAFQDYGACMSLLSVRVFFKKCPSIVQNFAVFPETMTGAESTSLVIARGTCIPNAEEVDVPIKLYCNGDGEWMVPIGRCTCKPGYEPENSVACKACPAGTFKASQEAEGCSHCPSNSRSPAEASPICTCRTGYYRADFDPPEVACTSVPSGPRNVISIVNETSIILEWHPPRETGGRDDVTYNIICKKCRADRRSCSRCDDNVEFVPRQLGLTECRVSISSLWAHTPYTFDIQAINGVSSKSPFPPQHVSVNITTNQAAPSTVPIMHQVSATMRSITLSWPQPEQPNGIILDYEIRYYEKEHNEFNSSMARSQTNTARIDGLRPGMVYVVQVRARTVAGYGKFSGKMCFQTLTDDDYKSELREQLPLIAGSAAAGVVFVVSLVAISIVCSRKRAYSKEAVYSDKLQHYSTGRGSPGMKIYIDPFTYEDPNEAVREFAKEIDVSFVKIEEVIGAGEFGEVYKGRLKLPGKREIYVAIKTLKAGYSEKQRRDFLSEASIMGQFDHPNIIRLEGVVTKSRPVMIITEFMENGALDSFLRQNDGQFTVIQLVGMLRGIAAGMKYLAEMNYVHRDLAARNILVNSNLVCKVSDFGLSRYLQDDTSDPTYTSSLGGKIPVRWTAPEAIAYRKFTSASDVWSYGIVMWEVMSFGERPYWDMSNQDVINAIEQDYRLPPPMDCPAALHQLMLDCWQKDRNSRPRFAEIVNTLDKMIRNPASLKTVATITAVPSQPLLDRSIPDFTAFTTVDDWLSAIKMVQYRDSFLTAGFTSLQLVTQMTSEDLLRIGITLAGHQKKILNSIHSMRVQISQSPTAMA
CDK7 (human), sequence (P50613 whole entry, looked up): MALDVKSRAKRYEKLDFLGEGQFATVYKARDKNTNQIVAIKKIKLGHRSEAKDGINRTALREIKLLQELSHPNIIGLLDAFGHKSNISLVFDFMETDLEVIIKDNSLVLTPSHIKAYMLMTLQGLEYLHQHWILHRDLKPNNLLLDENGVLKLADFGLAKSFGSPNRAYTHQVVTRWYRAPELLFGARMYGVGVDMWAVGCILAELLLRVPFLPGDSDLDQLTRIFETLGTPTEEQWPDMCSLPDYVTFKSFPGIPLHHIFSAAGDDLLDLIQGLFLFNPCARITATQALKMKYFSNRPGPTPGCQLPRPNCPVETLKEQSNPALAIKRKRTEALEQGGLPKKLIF

CN(C)C/C=C/C(=O)Nc1cccc(C(=O)Nc2ccc(Nc3nccc(/C(C#N)=C4\Nc5ccccc5S4)n3)cc2)c1
kinase still bound, per cent of control (ADCK3 (human)): 82%
kinase still bound, per cent of control (CDC42BPA (human)): 98%
kinase still bound, per cent of control (CDC42BPB (human)): 100%
kinase still bound, per cent of control (CDK15 (human)): 100%
kinase still bound, per cent of control (CDK4 CCND1 (human)): 100%
kinase still bound, per cent of control (CDK7 (human)): 94%
kinase still bound, per cent of control (CDK9 (human)): 100%
kinase still bound, per cent of control (CSNK1E (human)): 41%
kinase still bound, per cent of control (CSNK2A1 (human)): 27%
kinase still bound, per cent of control (DCLK1 (human)): 100%
kinase still bound, per cent of control [1]: 100%
kinase still bound, per cent of control (EPHA6 (human)): 100%
kinase still bound, per cent of control (EPHB1 (human)): 100%
kinase still bound, per cent of control (HUNK (human)): 99%
kinase still bound, per cent of control (LRRK2 (human)): 57%
kinase still bound, per cent of control (MAP3K13 (human)): 100%
kinase still bound, per cent of control (MERTK (human)): 66%
kinase still bound, per cent of control (MET (human)): 92%
kinase still bound, per cent of control (MST1R (human)): 100%
kinase still bound, per cent of control (NEK7 (human)): 100%
kinase still bound, per cent of control (NTRK1 (human)): 100%
kinase still bound, per cent of control (PAK1 (human)): 100%
kinase still bound, per cent of control (PAK3 (human)): 84%
kinase still bound, per cent of control (PHKG1 (human)): 94%
kinase still bound, per cent of control [2]: 100%
kinase still bound, per cent of control [3]: 100%
kinase still bound, per cent of control (PIM2 (human)): 51%
kinase still bound, per cent of control (PIM3 (human)): 100%
kinase still bound, per cent of control (PRKD3 (human)): 100%
kinase still bound, per cent of control (PRKX (human)): 82%
kinase still bound, per cent of control (PTK6 (human)): 100%
kinase still bound, per cent of control [4]: 17%
kinase still bound, per cent of control (RIOK3 (human)): 100%
kinase still bound, per cent of control (RIPK4 (human)): 100%
kinase still bound, per cent of control (ROS1 (human)): 58%
kinase still bound, per cent of control (SGK110 (human)): 100%
kinase still bound, per cent of control (SNRK (human)): 100%
kinase still bound, per cent of control (SRMS (human)): 100%
kinase still bound, per cent of control (STK17A (human)): 100%
kinase still bound, per cent of control (STK33 (human)): 100%
kinase still bound, per cent of control (TAOK1 (human)): 74%
kinase still bound, per cent of control (ULK1 (human)): 92%
kinase still bound, per cent of control (ULK3 (human)): 100%

CN(C)C/C=C/C(=O)Nc1cccc(C(=O)Nc2ccc(Nc3nccc(-c4cccnc4)n3)cc2)c1
kinase still bound, per cent of control (ADCK3 (human)): 58%
kinase still bound, per cent of control (CDC42BPA (human)): 100%
kinase still bound, per cent of control (CDC42BPB (human)): 93%
kinase still bound, per cent of control (CDK15 (human)): 96%
kinase still bound, per cent of control (CDK4 CCND1 (human)): 61%
kinase still bound, per cent of control (CDK7 (human)): 20%
kinase still bound, per cent of control (CDK9 (human)): 55%
kinase still bound, per cent of control (CSNK1E (human)): 6.8%
kinase still bound, per cent of control (CSNK2A1 (human)): 17%
kinase still bound, per cent of control (DCLK1 (human)): 96%
kinase still bound, per cent of control [1]: 100%
kinase still bound, per cent of control (EPHA6 (human)): 95%
kinase still bound, per cent of control (EPHB1 (human)): 92%
kinase still bound, per cent of control (HUNK (human)): 65%
kinase still bound, per cent of control (LRRK2 (human)): 63%
kinase still bound, per cent of control (MAP3K13 (human)): 100%
kinase still bound, per cent of control (MERTK (human)): 100%
kinase still bound, per cent of control (MET (human)): 100%
kinase still bound, per cent of control (MST1R (human)): 100%
kinase still bound, per cent of control (NEK7 (human)): 7%
kinase still bound, per cent of control (NTRK1 (human)): 76%
kinase still bound, per cent of control (PAK1 (human)): 69%
kinase still bound, per cent of control (PAK3 (human)): 100%
kinase still bound, per cent of control (PHKG1 (human)): 91%
kinase still bound, per cent of control [2]: 100%
kinase still bound, per cent of control [3]: 98%
kinase still bound, per cent of control (PIM2 (human)): 100%
kinase still bound, per cent of control (PIM3 (human)): 92%
kinase still bound, per cent of control (PRKD3 (human)): 100%
kinase still bound, per cent of control (PRKX (human)): 96%
kinase still bound, per cent of control (PTK6 (human)): 77%
kinase still bound, per cent of control [4]: 100%
kinase still bound, per cent of control (RIOK3 (human)): 8.3%
kinase still bound, per cent of control (RIPK4 (human)): 31%
kinase still bound, per cent of control (ROS1 (human)): 100%
kinase still bound, per cent of control (SGK110 (human)): 100%
kinase still bound, per cent of control (SNRK (human)): 90%
kinase still bound, per cent of control (SRMS (human)): 100%
Kd (STK17A (human)): 100 nM
kinase still bound, per cent of control (STK17A (human)): 1.3%
kinase still bound, per cent of control (STK33 (human)): 93%
kinase still bound, per cent of control (TAOK1 (human)): 13%
kinase still bound, per cent of control (ULK1 (human)): 100%
kinase still bound, per cent of control (ULK3 (human)): 7%
